Source: US10766866B2, “Deterrents for arthropods and marine organisms” (priority 2017, dated 2020)

Tests used:
[1] = target: T1, Hsα2C-AR (human α2C adrenergic receptor) (Homo sapiens, UniProt P18825); test: [3H]rauwolscine competition radioligand binding, membranes of clonal mammalian cell lines; conditions: 50 mM Tris pH 7.4, 25° C., 2 hr, Cheng-Prusoff
T1 construct: expressed in transfected cells
T1 sequence (P18825 1-462): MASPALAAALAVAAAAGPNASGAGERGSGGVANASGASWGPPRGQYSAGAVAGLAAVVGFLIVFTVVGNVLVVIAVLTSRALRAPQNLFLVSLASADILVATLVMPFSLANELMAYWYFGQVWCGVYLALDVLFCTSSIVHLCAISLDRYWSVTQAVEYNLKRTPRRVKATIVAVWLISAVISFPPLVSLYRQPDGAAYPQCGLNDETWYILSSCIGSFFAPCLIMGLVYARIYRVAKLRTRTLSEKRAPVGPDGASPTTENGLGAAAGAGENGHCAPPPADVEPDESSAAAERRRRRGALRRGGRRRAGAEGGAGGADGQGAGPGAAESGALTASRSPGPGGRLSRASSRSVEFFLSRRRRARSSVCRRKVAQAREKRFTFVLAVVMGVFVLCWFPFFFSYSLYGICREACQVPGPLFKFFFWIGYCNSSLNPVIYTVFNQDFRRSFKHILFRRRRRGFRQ
From the text: (§1) Functional expression of cloned arthropod OctRs and human α2-ARs: The cDNAs for α-like OctRs from different arthropod species (e.g., Anopheles gambiae, Aedes aegypti, Periplaneta americana, Drosophila melanogaster, Ixodes scapularis, Balanus improvises) and for α2-AR subtypes from humans were individually subcloned into mammalian expression vectors. These plasmids, which harbor a resistance gene for the selection drug G418 and the cDNA sequence for the receptor of interest, were individually transfected into mammalian cells using a calcium phosphate precipitation method. G418 selection was then employed to generated stable clonal cell lines. Utilizing rapid filtration radioligand binding techniques, the cell surface density of receptor expression of the individual clonal cell lines was determined at equilibrium and those with similar high levels of expression were selected for further experiments. Briefly, binding conditions were 50 mM Tris binding buffer pH 7.4 at 25° C. and an ice-cold wash buffer 10 mM Tris-HCl, pH 7.4). The radioligand was [3H]rauwolscine and non-specific binding was determined in the presence of 10 μM atipamezole. Following the addition of membranes prepared from the clonal cell lines, samples were mixed and allowed 2 hr. to reach equilibrium before rapid filtration and washing through 0.3% PEI-treated GF/C filters. The radioactivity remaining on the filters was quantified by scintillation counting. Receptor density (Bmax) was back calculated knowing the specific activity of the radioligand and applying the equation for a square hyperbola model: Bmax=(Y·(KD+X))/X, where Y is [specifically bound radioligand] and X=[radio ligand concentration]. The affinity (KD) for the radioligand for each receptor was determined in separate saturation isotherm binding experiments using the same binding conditions as describe above.
(§2) Measurement of compound affinities by competition radioligand binding: Affinities (Ki) for compounds were determined by [3H]rauwolscine competition binding using the same binding conditions as described above. The Ki values were calculated from IC50 values using the Cheng-Prusoff equation.

[2] = target: T2, Hsα2A-AR (human α2A adrenergic receptor) (Homo sapiens, UniProt P08913); test: as above; conditions: 50 mM Tris pH 7.4, 25° C., 2 hr, Cheng-Prusoff
T2 construct: expressed in transfected cells; membranes
From the text: as §1, §2

Balanus OctR (BiOctR) = test: OctR activation, change in intracellular calcium; type: cell-based, Balanus improvises; conditions: Balanus barnacle OctR over Homo sapien α2-AR subtypes
From the text: as §1, with “Briefly, binding conditions were 50 mM Tris binding buffer pH 7.4 at 25° C. and an ice-cold wash buffer 10 mM Tris-HCl, pH 7.4).” left out, “Following the addition of membranes prepared from the clonal cell lines, samples were mixed and allowed 2 hr. to reach equilibrium before rapid filtration and washing through 0.3% PEI-treated GF/C filters.” left out, “The affinity (KD) for the radioligand for each receptor was determined in separate saturation isotherm binding experiments using the same binding conditions as describe above.” left out

[3] = test system: IsTOctR (Ixodes octopamine receptor), cloned α-like OctR; test: OctR activation: change in intracellular calcium (CALCIUM 6QR dye, FlexStation 3) in stably transfected mammalian cells; type: cell-based, Ixodes scapularis; conditions: agonist, read-out: IsTOctR (Ixodes octopamine receptor) EC50
From the text: as §1
(§3) Measurement of OctR activation by measuring changes in intracellular calcium: Activation of arthropod α-like OctRs increases intracellular calcium via a Gq-coupling mechanism. This involves activation of phospholipase C leading to an increase in intracellular inositol triphosphate (IP3) which then activates IP3-gated calcium channels in the endoplasmic reticulum causing a transient rise in intracellular calcium. These changes in intracellular calcium upon OctR activation were measured by loading cells with intracellular calcium sensitive dye CALCIUM 6QR and reading the change in calcium-induced fluorescent signal over time on a FlexStation 3 microplate reader.

[4] = test system: Periplaneta americana OctR (PaOctR); test: OctR activation, change in intracellular calcium; type: cell-based; conditions: Periplaneta cockroach OctR over Homo sapien α2-AR subtypes
From the text: as §1, §3

[5] = test system: Anopheles gambiae mosquito isoform A OctR (AgAOctR); test: OctR activation, change in intracellular calcium; type: cell-based; conditions: AgAOctR over Homo sapien α2-AR subtypes
From the text: as §1, §3

[6] = test system: Ixodes scapularis tick OctR (IsTOctR); test: OctR activation, change in intracellular calcium; type: cell-based; conditions: Ixodes tick OctR over Homo sapien α2-AR subtypes
From the text: as §1, §3

T2 sequence (P08913 whole entry): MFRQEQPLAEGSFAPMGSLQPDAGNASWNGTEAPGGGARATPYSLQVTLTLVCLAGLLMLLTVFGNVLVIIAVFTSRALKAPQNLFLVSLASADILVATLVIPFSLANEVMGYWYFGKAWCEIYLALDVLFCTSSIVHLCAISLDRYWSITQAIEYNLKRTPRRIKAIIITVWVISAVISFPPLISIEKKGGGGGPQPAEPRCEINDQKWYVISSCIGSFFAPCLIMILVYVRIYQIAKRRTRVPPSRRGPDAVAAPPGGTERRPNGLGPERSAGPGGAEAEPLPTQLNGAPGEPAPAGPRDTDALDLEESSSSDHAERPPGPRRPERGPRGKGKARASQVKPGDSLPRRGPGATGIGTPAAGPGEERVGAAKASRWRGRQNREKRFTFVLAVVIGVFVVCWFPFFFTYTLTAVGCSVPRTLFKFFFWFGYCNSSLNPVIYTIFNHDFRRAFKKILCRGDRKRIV

C=C(c1cnc[nH]1)c1cccc(C)c1C [AZ0027]
Ki [1]: 231 ± 46 nM | Ki [2]: 109 ± 16 nM | selectivity Ki(Hsα2-AR)/EC50(OctR) (Balanus OctR (BiOctR)): highly selective | EC50 [3]: 0.51 ± 0.28 nM | selectivity Ki(Hsα2-AR)/EC50(OctR) [4]: highly selective | selectivity Ki(Hsα2-AR)/EC50(OctR) [5]: highly selective | selectivity Ki(Hsα2-AR)/EC50(OctR) [6]: highly selective
